System: MV-4-11 cells
Test: Gene expression microarray analysis (Affymetrix PrimeView) and GSEA
Type: cell-based, human
Set-up: RFU PODN (11730768_x_at) / Fold change /veh PODN (11730768_x_at) / RFU LINC00158 (11744669_a_at) / Fold change /veh LINC00158 (11744669_a_at) / RFU DUSP10 (11751237_a_at) / Fold change /veh DUSP10 (11751237_a_at) / RFU ID3 (11757404_x_at) / Fold change /veh ID3 (11757404_x_at) / RFU PLEKHG5 (11737974_s_at) / Fold change /veh PLEKHG5 (11737974_s_at) / RFU LRRC4B (11730491_at) / Fold change /veh LRRC4B (11730491_at) / RFU GIMAP4 (11747438_a_at) / Fold change /veh GIMAP4 (11747438_a_at) / RFU KRT8 (11758183_x_at) / Fold change /veh KRT8 (11758183_x_at) / RFU CNN1 (11734310_a_at) / Fold change /veh CNN1 (11734310_a_at) / RFU VPS37D (11726825_at) / Fold change /veh VPS37D (11726825_at) / RFU C10orf10 (11716522_x_at) / Fold change /veh C10orf10 (11716522_x_at) / RFU KIR2DL2 /// KIR2DL4 /// KIR2DL5A /// KIR2DL5B /// KIR2DS1 /// KIR2DS2 /// KIR2DS3 /// KIR2DS4 /// KIR3DL3 /// KIR3DL3 /// KIR3DS1 (11738374_at) / Fold change /veh KIR2DL2 /// KIR2DL4 /// KIR2DL5A /// KIR2DL5B /// KIR2DS1 /// KIR2DS2 /// KIR2DS3 /// KIR2DS4 /// KIR3DL3 /// KIR3DL3 /// KIR3DS1 (11738374_at) / RFU C1QL1 (11718748_at) / Fold change /veh C1QL1 (11718748_at) / RFU TMPRSS4 (11747572_a_at) / Fold change /veh TMPRSS4 (11747572_a_at) / RFU HAMP (11756126_x_at) / Fold change /veh HAMP (11756126_x_at) / RFU RNFT2 (11725882_a_at) / Fold change /veh RNFT2 (11725882_a_at) / RFU NR4A2 (11747474_a_at) / Fold change /veh NR4A2 (11747474_a_at) / RFU ABCC12 (11746883_a_at) / Fold change /veh ABCC12 (11746883_a_at) / RFU TMEM136 (11760407_x_at) / Fold change /veh TMEM136 (11760407_x_at) / RFU CLDN22 /// WWC2 (11732394_at) / Fold change /veh CLDN22 /// WWC2 (11732394_at) / RFU HLA-DPB1 (11760878_x_at) / Fold change /veh HLA-DPB1 (11760878_x_at) / RFU SPINT1 (11716480_a_at) / Fold change /veh SPINT1 (11716480_a_at) / RFU GAP43 (11754022_s_at) / Fold change /veh GAP43 (11754022_s_at) / RFU A4GNT (11735810_at) / Fold change /veh A4GNT (11735810_at) / RFU PRB3 (11715151_x_at) / Fold change /veh PRB3 (11715151_x_at) / RFU TUBB4B (11761932_at) / Fold change /veh TUBB4B (11761932_at) / RFU CAPN14 (11732068_a_at) / Fold change /veh CAPN14 (11732068_a_at) / RFU TMCC2 (11721928_a_at) / Fold change /veh TMCC2 (11721928_a_at) / RFU IRGQ (11745062_a_at) / Fold change /veh IRGQ (11745062_a_at) / RFU FAM174B (11720279_a_at) / Fold change /veh FAM174B (11720279_a_at) / RFU TMPRSS4 (11748680_a_at) / Fold change /veh TMPRSS4 (11748680_a_at) / RFU FAM212B (11763350_a_at) / Fold change /veh FAM212B (11763350_a_at) / RFU PLEKHG5 (11743358_a_at) / Fold change /veh PLEKHG5 (11743358_a_at) / RFU ZSCAN30 (11745921_a_at) / Fold change /veh ZSCAN30 (11745921_a_at) / RFU CMKLR1 (11741424_a_at) / Fold change /veh CMKLR1 (11741424_a_at) / RFU LOC101060620 /// MAPK8IP1 (11723275_at) / Fold change /veh LOC101060620 /// MAPK8IP1 (11723275_at) / RFU SPTSSB (11747773_x_at) / Fold change /veh SPTSSB (11747773_x_at) / RFU PRSS12 (11739890_at) / Fold change /veh PRSS12 (11739890_at) / RFU BIN1 (11741810_x_at) / Fold change /veh BIN1 (11741810_x_at) / RFU WNT11 (11732464_a_at) / Fold change /veh WNT11 (11732464_a_at) / RFU C10orf10 (11716521_a_at) / Fold change /veh C10orf10 (11716521_a_at) / RFU C5orf56 (11738089_at) / Fold change /veh C5orf56 (11738089_at) / RFU CYB561 (11721691_x_at) / Fold change /veh CYB561 (11721691_x_at) / RFU ANKRD19P (11752326_a_at) / Fold change /veh ANKRD19P (11752326_a_at) / RFU OR2T12 /// OR2T33 /// OR2T8 (11738714_s_at) / Fold change /veh OR2T12 /// OR2T33 /// OR2T8 (11738714_s_at) / RFU VCAN (11748164_a_at) / Fold change /veh VCAN (11748164_a_at) / RFU JSRP1 (11732532_at) / Fold change /veh JSRP1 (11732532_at) / RFU KRTAP10-11 (11738290_x_at) / Fold change /veh KRTAP10-11 (11738290_x_at) / RFU MYO3A (11730013_a_at) / Fold change /veh MYO3A (11730013_a_at) / RFU EBF3 (11725865_a_at) / Fold change /veh EBF3 (11725865_a_at) / RFU CAMK2N1 (11719241_x_at) / Fold change /veh CAMK2N1 (11719241_x_at) / RFU C5orf56 (11738088_a_at) / Fold change /veh C5orf56 (11738088_a_at) / RFU OLFML3 (11715873_a_at) / Fold change /veh OLFML3 (11715873_a_at) / RFU LOC100653217 /// NTM (11731650_a_at) / Fold change /veh LOC100653217 /// NTM (11731650_a_at) / RFU MAPK11 (11762145_a_at) / Fold change /veh MAPK11 (11762145_a_at) / RFU FIZ1 (11724087_x_at) / Fold change /veh FIZ1 (11724087_x_at) / RFU OASL (11726364_x_at) / Fold change /veh OASL (11726364_x_at) / RFU SOX15 (11748057_x_at) / Fold change /veh SOX15 (11748057_x_at) / RFU CD79A (11719716_a_at) / Fold change /veh CD79A (11719716_a_at) / RFU HIST1H1D (11736915_at) / Fold change /veh HIST1H1D (11736915_at) / RFU CASKIN2 (11723855_a_at) / Fold change /veh CASKIN2 (11723855_a_at) / RFU LOC730098 (11760151_x_at) / Fold change /veh LOC730098 (11760151_x_at) / RFU OR4N2 (11742367_at) / Fold change /veh OR4N2 (11742367_at) / RFU PRRT2 (11749266_a_at) / Fold change /veh PRRT2 (11749266_a_at) / RFU SNX32 (11753110_a_at) / Fold change /veh SNX32 (11753110_a_at) / RFU CDHR5 (11726645_a_at) / Fold change /veh CDHR5 (11726645_a_at) / RFU RCAN1 (11760418_a_at) / Fold change /veh RCAN1 (11760418_a_at) / RFU FAM167A (11723789_a_at) / Fold change /veh FAM167A (11723789_a_at) / RFU FAM26E (11764081_at) / Fold change /veh FAM26E (11764081_at) / RFU ISYNA1 (11749810_s_at) / Fold change /veh ISYNA1 (11749810_s_at) / RFU ACY1 (11761880_at) / Fold change /veh ACY1 (11761880_at) / RFU 11764098_at / Fold change /veh 11764098_at / RFU SAMD14 (11745864_x_at) / Fold change /veh SAMD14 (11745864_x_at) / RFU NPB (11741838_a_at) / Fold change /veh NPB (11741838_a_at) / RFU TMPRSS6 (11731388_a_at) / Fold change /veh TMPRSS6 (11731388_a_at) / RFU KRTAP10-2 (11738614_at) / Fold change /veh KRTAP10-2 (11738614_at) / RFU ARHGAP8 /// PRR5-ARHGAP8 (11727945_x_at) / Fold change /veh ARHGAP8 /// PRR5-ARHGAP8 (11727945_x_at) / RFU KRTAP5-7 /// NADSYN1 (11734609_at) / Fold change /veh KRTAP5-7 /// NADSYN1 (11734609_at) / RFU RASL12 (11751679_a_at) / Fold change /veh RASL12 (11751679_a_at) / RFU CDKN2B (11736163_a_at) / Fold change /veh CDKN2B (11736163_a_at) / RFU PRF1 (11729649_at) / Fold change /veh PRF1 (11729649_at) / RFU, ZNF638 /// ZNF638-IT1 / Fold change vs veh, ZNF638 /// ZNF638-IT1 / RFU, PANK3 / Fold change vs veh, PANK3 / RFU, SH3YL1 / Fold change vs veh, SH3YL1 / RFU, ZEB2 / Fold change vs veh, ZEB2 / RFU, NRIP1 / Fold change vs veh, NRIP1 / RFU, PTTG1IP / Fold change vs veh, PTTG1IP / RFU, CAPN2 / Fold change vs veh, CAPN2 / RFU, MED14 / Fold change vs veh, MED14 / RFU, SNORA58 / Fold change vs veh, SNORA58 / RFU, C1orf63 / Fold change vs veh, C1orf63 / RFU, LRRFIP1 / Fold change vs veh, LRRFIP1 / RFU, NDUFAF7 / Fold change vs veh, NDUFAF7 / RFU, SLC12A2 / Fold change vs veh, SLC12A2 / RFU, IBTK / Fold change vs veh, IBTK / RFU, ESF1 / Fold change vs veh, ESF1 / Fold change vs veh, TMEM50B / RFU, TAOK1 / Fold change vs veh, TAOK1 / RFU, ACBD3 / Fold change vs veh, ACBD3 / RFU, TMA16 / Fold change vs veh, TMA16 / RFU, RWDD3 / Fold change vs veh, RWDD3 / RFU, BCAT1 / Fold change vs veh, BCAT1 / RFU, EDEM3 / Fold change vs veh, EDEM3 / RFU, TMEM33 / Fold change vs veh, TMEM33 / RFU, WDR75 / Fold change vs veh, WDR75 / RFU, AHCTF1 / Fold change vs veh, AHCTF1 / RFU, TFRC / Fold change vs veh, TFRC / RFU, ZDHHC17 / Fold change vs veh, ZDHHC17 / RFU, NOM1 / Fold change vs veh, NOM1 / RFU, ARL8B / Fold change vs veh, ARL8B / RFU, ZBTB11 / Fold change vs veh, ZBTB11 / RFU, TAMM41 / Fold change vs veh, TAMM41 / RFU, KIAA1704 /// LOC100996395 / Fold change vs veh, KIAA1704 /// LOC100996395 / RFU, ING1 / Fold change vs veh, ING1 / RFU, TRMT61B / Fold change vs veh, TRMT61B / RFU, FUBP3 / Fold change vs veh, FUBP3 / RFU, TP53 / Fold change vs veh, TP53 / RFU, TNKS2 / Fold change vs veh, TNKS2 / RFU, ZFP14 / Fold change vs veh, ZFP14 / RFU, ACTR2 / Fold change vs veh, ACTR2 / RFU, PPP3R1 / Fold change vs veh, PPP3R1 / RFU, PIK3R1 / Fold change vs veh, PIK3R1 / RFU, HNRNPA1 / Fold change vs veh, HNRNPA1 / RFU, RNF170 / Fold change vs veh, RNF170 / RFU, ZNF28 / Fold change vs veh, ZNF28 / RFU, RNGTT / Fold change vs veh, RNGTT / RFU, OGT / Fold change vs veh, OGT / RFU, BRD1 / Fold change vs veh, BRD1 / RFU, MARS / Fold change vs veh, MARS / RFU, ZNF655 / Fold change vs veh, ZNF655 / RFU, FAHD1 / Fold change vs veh, FAHD1 / RFU, BDP1 / Fold change vs veh, BDP1 / RFU, LRRCC1 / Fold change vs veh, LRRCC1 / RFU, ARID1A / Fold change vs veh, ARID1A / RFU, ZNF146 / Fold change vs veh, ZNF146 / RFU, ZNF330 / Fold change vs veh, ZNF330 / RFU, GPN3 / Fold change vs veh, GPN3 / RFU, C9orf123 / Fold change vs veh, C9orf123 / RFU, N4BP2L2 / Fold change vs veh, N4BP2L2 / RFU, ARFIP1 / Fold change vs veh, ARFIP1 / RFU, FAM179B / Fold change vs veh, FAM179B / RFU, BCL10 / Fold change vs veh, BCL10 / RFU, UHRF1BP1L / Fold change vs veh, UHRF1BP1L / RFU, BET1 / Fold change vs veh, BET1 / RFU, CNOT2 / Fold change vs veh, CNOT2 / RFU, ZNF268 / Fold change vs veh, ZNF268 / Fold change vs veh, ZNF507 / RFU, DGCR2 / Fold change vs veh, DGCR2 / RFU, WDSUB1 / Fold change vs veh, WDSUB1 / Fold change vs veh, HSP90B1 /// MIR3652 / RFU, ADSS / Fold change vs veh, ADSS / RFU, GK / Fold change vs veh, GK / RFU, ZNF148 / Fold change vs veh, ZNF148 / RFU, TAF9 / Fold change vs veh, TAF9 / RFU, SLC1A5 / Fold change vs veh, SLC1A5 / RFU, SLMO2 / Fold change vs veh, SLMO2 / RFU, ABCC4 / Fold change vs veh, ABCC4 / RFU, LOC101060439 /// RAP1B / Fold change vs veh, LOC101060439 /// RAP1B / RFU, RFX7 / Fold change vs veh, RFX7 / RFU, GTPBP10 / Fold change vs veh, GTPBP10 / RFU, CNEP1R1 / Fold change vs veh, CNEP1R1 / RFU, BIVM-ERCC5 /// ERCC5 / Fold change vs veh, BIVM-ERCC5 /// ERCC5 / RFU, ILF3 / Fold change vs veh, ILF3 / RFU 11762660_at / Fold change /veh 11762660_at / RFU VCAN (11757783_s_at) / Fold change /veh VCAN (11757783_s_at) / RFU DDX43 (11728927_at) / Fold change /veh DDX43 (11728927_at) / RFU KRT8 (11758188_x_at) / Fold change /veh KRT8 (11758188_x_at) / RFU NKD1 (11759106_at) / Fold change /veh NKD1 (11759106_at) / RFU SRD5A1 (11742802_a_at) / Fold change /veh SRD5A1 (11742802_a_at) / RFU TPSAB1 /// TPSB2 (11721975_s_at) / Fold change /veh TPSAB1 /// TPSB2 (11721975_s_at) / RFU GSTM3 (11746129_a_at) / Fold change /veh GSTM3 (11746129_a_at) / RFU IL23R (11737362_x_at) / Fold change /veh IL23R (11737362_x_at) / RFU TMEM51 (11727254_a_at) / Fold change /veh TMEM51 (11727254_a_at) / RFU PIWIL2 (11732686_x_at) / Fold change /veh PIWIL2 (11732686_x_at) / RFU ORM1 (11744905_x_at) / Fold change /veh ORM1 (11744905_x_at) / RFU CCDC152 (11743942_at) / Fold change /veh CCDC152 (11743942_at) / RFU ECM1 (11717891_a_at) / Fold change /veh ECM1 (11717891_a_at) / RFU IL23R (11748794_a_at) / Fold change /veh IL23R (11748794_a_at) / RFU TNFAIP8L3 (11732012_x_at) / Fold change /veh TNFAIP8L3 (11732012_x_at) / RFU MBOAT4 (11741988_at) / Fold change /veh MBOAT4 (11741988_at) / RFU 11764193_at / Fold change /veh 11764193_at / RFU TMEM53 (11763286_at) / Fold change /veh TMEM53 (11763286_at) / RFU MAGEB2 (11727129_at) / Fold change /veh MAGEB2 (11727129_at) / RFU TMEM200A (11744735_a_at) / Fold change /veh TMEM200A (11744735_a_at) / RFU CCDC152 (11751479_a_at) / Fold change /veh CCDC152 (11751479_a_at) / RFU FAM211A (11726209_a_at) / Fold change /veh FAM211A (11726209_a_at) / RFU RGS16 (11746705_a_at) / Fold change /veh RGS16 (11746705_a_at) / RFU VCAN (11755009_s_at) / Fold change /veh VCAN (11755009_s_at) / RFU RHOB (11743442_s_at) / Fold change /veh RHOB (11743442_s_at) / RFU RGS16 (11720943_a_at) / Fold change /veh RGS16 (11720943_a_at) / RFU RGS16 (11720944_at) / Fold change /veh RGS16 (11720944_at) / RFU, VPS4B / Fold change vs veh, VPS4B / RFU, CREB1 / Fold change vs veh, CREB1 / RFU, DNAJC13 / Fold change vs veh, DNAJC13 / RFU, GNAQ / Fold change vs veh, GNAQ / RFU, CDK5R1 / Fold change vs veh, CDK5R1 / RFU, ZRANB3 / Fold change vs veh, ZRANB3 / RFU, CUL4A / Fold change vs veh, CUL4A / RFU, CCNY / Fold change vs veh, CCNY / RFU, UFL1 / Fold change vs veh, UFL1 / RFU, COG3 / Fold change vs veh, COG3 / RFU, DIAPH2 / Fold change vs veh, DIAPH2 / RFU, SKA2 / Fold change vs veh, SKA2 / RFU, AFF3 / Fold change vs veh, AFF3 / RFU, LMF1 / Fold change vs veh, LMF1 / RFU, IPO11 / Fold change vs veh, IPO11 / RFU, DFFB / Fold change vs veh, DFFB / RFU, FOXP1 / Fold change vs veh, FOXP1 / RFU, CARD8 / Fold change vs veh, CARD8 / RFU, STRN3 / Fold change vs veh, STRN3 / RFU, ADK / Fold change vs veh, ADK / RFU, RASSF2 / Fold change vs veh, RASSF2 / RFU, WIPF1 / Fold change vs veh, WIPF1 / RFU, LARP1B / Fold change vs veh, LARP1B / RFU, RASA1 / Fold change vs veh, RASA1 / RFU, RB1 / Fold change vs veh, RB1 / RFU, PPFIA1 / Fold change vs veh, PPFIA1 / RFU, MAT2A / Fold change vs veh, MAT2A / RFU, CCT5 / Fold change vs veh, CCT5 / RFU, WDR92 / Fold change vs veh, WDR92 / RFU, CUX1 / Fold change vs veh, CUX1 / RFU, TTC7A / Fold change vs veh, TTC7A / RFU, TMEM135 / Fold change vs veh, TMEM135 / RFU, DEPTOR / Fold change vs veh, DEPTOR / RFU, CPM / Fold change vs veh, CPM / RFU, DNAJB6 / Fold change vs veh, DNAJB6 / RFU, CACNA2D3 / Fold change vs veh, CACNA2D3 / RFU, DTX4 / Fold change vs veh, DTX4 / RFU, TFCP2 / Fold change vs veh, TFCP2 / RFU, GMCL1 /// GMCL1P1 / Fold change vs veh, GMCL1 /// GMCL1P1 / RFU, AEBP2 / Fold change vs veh, AEBP2 / RFU, SNHG1 /// SNORD22 /// SNORD25 /// SNORD26 /// SNORD27 /// SNORD28 /// SNORD29 /// SNORD31 / Fold change vs veh, SNHG1 /// SNORD22 /// SNORD25 /// SNORD26 /// SNORD27 /// SNORD28 /// SNORD29 /// SNORD31 / Fold change (Aza/veh), C12orf56 (ProbeSet 11735607_a_at) / Fold change (ACY-1035/veh), C12orf56 (ProbeSet 11735607_a_at) / Fold change (Aza/veh), FGFR1OP (ProbeSet 11751329_s_at) / Fold change (ACY-1035/veh), FGFR1OP (ProbeSet 11751329_s_at) / Fold change (Aza/veh), VPS36 (ProbeSet 11739960_a_at) / Fold change (ACY-1035/veh), VPS36 (ProbeSet 11739960_a_at) / RFU SYPL1 (11715823_x_at) / Fold change /veh SYPL1 (11715823_x_at) / RFU IGFBP7 (11715501_s_at) / Fold change /veh IGFBP7 (11715501_s_at) / RFU REEP3 (11722064_at) / Fold change /veh REEP3 (11722064_at) / RFU IGLL1 (11728026_x_at) / Fold change /veh IGLL1 (11728026_x_at): dose or concentration left out as unconfirmed
Settings: MV-4-11 cells, 48 hours

With `Nc1ccc(-c2cccs2)cc1NC(=O)c1ccc2c(c1)cc(C1CC1)n2CCN1CCOCC1` [ACY-1035] the “Fold change /veh HLA-DPB1 (11760878_x_at)” value was 1.16.

— publication PMC5218480 (PLoS ONE, 2017)
